What is called IC50 is the concentration needed to halve the response being measured.

Converted amounts (≈) assume the structure as drawn.

Results on 5 molecules are retold here after patent US9592221B2, “Antibacterial agents: aryl myxopyronin derivatives” (priority 2012, dated 2017).

Experiment [1] has as its target E. coli RNA polymerase σ^70 holoenzyme (Escherichia coli, UniProt P0A8T7+P0A8V2). Nature of the experiment: Fluorescence-detected RNA polymerase assay, E. coli RNA polymerase. It counts as biochemical. The conditions noted are these: read-out: IC50 E. coli RNAP.
Experiment [2] has as its system Staphylococcus aureus ATCC 12600. The experiment is described as follows: MIC, spiral gradient endpoint assay, S. aureus ATCC 12600. It counts as cell-based. The following applies: ATCC12600; for MIC: Staphylococcus aureus ATCC 12600.
Experiment [3] relates to methicillin-resistant Staphylococcus aureus (MRSA) strain BAA-1707 (USA-400; MW2). Nature of the experiment: MIC, spiral gradient endpoint assay, MRSA BAA-1707. The experiment is classed as cell-based. The conditions noted are these: for MIC: Staphylococcus aureus, read-out: MIC S. aureus MRSA BAA-1707.
Experiment [4] has as its system methicillin-resistant Staphylococcus aureus (MRSA) strain BAA-1717 (USA-300). Nature of the experiment: MIC, spiral gradient endpoint assay, MRSA BAA-1717. The following applies: for MIC: Staphylococcus aureus, read-out: MIC S. aureus MRSA BAA-1717. It counts as cell-based.
In experiment [5] the test system is rifampin-resistant Staphylococcus aureus (RRSA) strain ATCC 12600-Rif (H526N). Nature of the experiment: MIC, spiral gradient endpoint assay, RRSA 12600-Rif. The experiment is classed as cell-based. The conditions noted are these: for MIC: Staphylococcus aureus, ATCC12600, read-out: MIC S. aureus RRSA 12600-Rif.
Experiment [6] deals with linezolid-resistant Staphylococcus aureus (LRSA) strain NRS 120. Nature of the experiment: MIC, spiral gradient endpoint assay, LRSA NRS 120. The conditions noted are these: for MIC: Staphylococcus aureus, NRS120, read-out: MIC S. aureus LRSA NRS120. The experiment is classed as cell-based.
The test system of experiment [7] is vancomycin-intermediate Staphylococcus aureus (VISA) strain NRS 1. The experiment is described as follows: MIC, spiral gradient endpoint assay, VISA NRS 1. The experiment is classed as cell-based. The conditions noted are these: for MIC: Staphylococcus aureus, read-out: MIC S. aureus VISA NRS1.
The subject of experiment [8] is Acinetobacter baumannii ATCC 19606. The experiment is described as follows: MIC, spiral gradient endpoint assay, A. baumannii. The experiment is classed as cell-based. The conditions noted are these: for MIC: ATCC19606.
Experiment [9] deals with Escherichia coli D21f2tolC. Nature of the experiment: MIC, spiral gradient endpoint assay, E. coli D21f2tolC. It counts as cell-based. The conditions noted are these: for MIC: Escherichia coli, D21F2TOLC, read-out: MIC E. coli D21f2toIC.
The subject of experiment [10] is Mycobacterium tuberculosis H37Rv. Nature of the experiment: MIC, microplate Alamar Blue assay, M. tuberculosis. It counts as cell-based. (Alamar Blue is a resazurin reagent that responds to reducing activity.)
Experiment [11] has as its system Bacillus anthracis Vollum 1b. Nature of the experiment: microbe, parasite or virus in culture. The experiment is classed as cell-based. The following applies: for MIC: Bacillus anthracis, VOLLUM1B, read-out: MIC B. anthracis Vollum-1b.
The subject of experiment [12] is Francisella tularensis SCHU4. Nature of the experiment: microbe, parasite or virus in culture. It counts as cell-based. The following applies: for MIC: Francisella tularensis, SCHU4, read-out: MIC F. tularensis SCHU4.
The next experiment deals with Burkholderia mallei CHN7. Nature of the experiment: microbe, parasite or virus in culture. The experiment is classed as cell-based. The following applies: for MIC: Burkholderia mallei, CHN7, read-out: MIC B. mallei CHN7.
Experiment [13] concerns Burkholderia pseudomallei Human/Blood/OH/US/1994. The experiment is described as follows: microbe, parasite or virus in culture. The following applies: for MIC: Burkholderia pseudomallei, read-out: MIC B. pseudomallei Human/Blood/OH. It counts as cell-based.
For a further experiment, the system named is Brucella melitensis 16M. Nature of the experiment: microbe, parasite or virus in culture. It counts as cell-based. The following applies: for MIC: Brucella melitensis, 16M, read-out: MIC B. melitensis 16M.
Experiment [14] has as its system methicillin-resistant Staphylococcus aureus (MRSA) strain BAA-1707 (USA-400, MW2). Nature of the experiment: Antibacterial efficacy in mouse model of Staphylococcus aureus systemic infection (peritonitis model). The conditions noted are these: mice. The experiment is classed as in vivo, Swiss Webster mice.
Experiment [15] deals with S. aureus RNA polymerase core enzyme, S. aureus σ^A (Staphylococcus aureus, UniProt P47768+Q2G0N5). The experiment is described as follows: Fluorescence-detected RNA polymerase assay, S. aureus RNA polymerase. The following applies: read-out: IC50 S. aureus RNAP. It counts as biochemical.
Experiment [16] deals with M. tuberculosis RNA polymerase core enzyme, M. tuberculosis σ^A (Mycobacterium tuberculosis, UniProt P9WGY7+P9WGY9). The experiment is described as follows: Fluorescence-detected RNA polymerase assay, M. tuberculosis RNA polymerase. The following applies: read-out: IC50 M. tuberculosis RNAP. It counts as biochemical.
Another experiment deals with Yersinia pestis C092. Nature of the experiment: microbe, parasite or virus in culture. The experiment is classed as cell-based.
Setting [17] is: Acinetobacter baumannii ATCC 19606.
The mark [18] stands for this setting: intravenous administration 0 h post-infection.
[19] abbreviates: oral administration 1 h pre-infection.

Chain of E. coli RNA polymerase σ^70 holoenzyme (P0A8T7 whole entry): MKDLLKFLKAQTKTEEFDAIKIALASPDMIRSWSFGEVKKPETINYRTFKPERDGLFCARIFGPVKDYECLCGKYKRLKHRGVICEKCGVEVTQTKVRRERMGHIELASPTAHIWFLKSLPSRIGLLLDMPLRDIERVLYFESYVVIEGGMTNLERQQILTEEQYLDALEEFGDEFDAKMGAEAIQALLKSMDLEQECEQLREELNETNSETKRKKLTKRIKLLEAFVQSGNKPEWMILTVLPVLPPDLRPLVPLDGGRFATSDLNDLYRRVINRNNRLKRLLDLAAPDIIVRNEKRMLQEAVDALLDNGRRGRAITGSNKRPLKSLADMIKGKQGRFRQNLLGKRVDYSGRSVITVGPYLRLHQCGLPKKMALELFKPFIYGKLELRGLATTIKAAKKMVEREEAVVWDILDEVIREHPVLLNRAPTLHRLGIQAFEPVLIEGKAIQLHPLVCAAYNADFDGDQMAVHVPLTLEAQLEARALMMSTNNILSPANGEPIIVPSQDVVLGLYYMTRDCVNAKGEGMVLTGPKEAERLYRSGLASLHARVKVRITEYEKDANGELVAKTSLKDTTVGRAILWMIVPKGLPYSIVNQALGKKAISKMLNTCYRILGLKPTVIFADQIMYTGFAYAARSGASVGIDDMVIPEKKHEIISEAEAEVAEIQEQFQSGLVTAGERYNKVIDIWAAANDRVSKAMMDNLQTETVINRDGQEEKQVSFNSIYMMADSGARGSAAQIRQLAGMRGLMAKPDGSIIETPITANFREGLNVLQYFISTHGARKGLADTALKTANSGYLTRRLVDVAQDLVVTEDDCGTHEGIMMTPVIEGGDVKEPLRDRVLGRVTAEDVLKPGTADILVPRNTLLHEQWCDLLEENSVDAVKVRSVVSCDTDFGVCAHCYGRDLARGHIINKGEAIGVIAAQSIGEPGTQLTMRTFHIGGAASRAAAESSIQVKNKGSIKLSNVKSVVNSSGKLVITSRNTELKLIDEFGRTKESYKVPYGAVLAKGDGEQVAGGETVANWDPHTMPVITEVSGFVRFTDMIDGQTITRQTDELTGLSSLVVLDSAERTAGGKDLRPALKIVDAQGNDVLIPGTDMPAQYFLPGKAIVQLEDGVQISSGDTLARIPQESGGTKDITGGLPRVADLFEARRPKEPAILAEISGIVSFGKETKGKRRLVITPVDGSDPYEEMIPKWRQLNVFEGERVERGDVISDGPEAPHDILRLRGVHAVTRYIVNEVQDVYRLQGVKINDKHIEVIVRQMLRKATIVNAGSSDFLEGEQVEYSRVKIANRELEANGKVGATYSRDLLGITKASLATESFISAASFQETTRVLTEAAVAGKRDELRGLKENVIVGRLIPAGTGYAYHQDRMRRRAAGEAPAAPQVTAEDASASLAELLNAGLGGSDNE
Chain of E. coli RNA polymerase σ^70 holoenzyme (P0A800 whole entry, further chain): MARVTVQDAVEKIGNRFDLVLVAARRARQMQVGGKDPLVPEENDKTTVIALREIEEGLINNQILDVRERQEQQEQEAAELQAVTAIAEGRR
Chain of E. coli RNA polymerase σ^70 holoenzyme (P0A8V2 whole entry): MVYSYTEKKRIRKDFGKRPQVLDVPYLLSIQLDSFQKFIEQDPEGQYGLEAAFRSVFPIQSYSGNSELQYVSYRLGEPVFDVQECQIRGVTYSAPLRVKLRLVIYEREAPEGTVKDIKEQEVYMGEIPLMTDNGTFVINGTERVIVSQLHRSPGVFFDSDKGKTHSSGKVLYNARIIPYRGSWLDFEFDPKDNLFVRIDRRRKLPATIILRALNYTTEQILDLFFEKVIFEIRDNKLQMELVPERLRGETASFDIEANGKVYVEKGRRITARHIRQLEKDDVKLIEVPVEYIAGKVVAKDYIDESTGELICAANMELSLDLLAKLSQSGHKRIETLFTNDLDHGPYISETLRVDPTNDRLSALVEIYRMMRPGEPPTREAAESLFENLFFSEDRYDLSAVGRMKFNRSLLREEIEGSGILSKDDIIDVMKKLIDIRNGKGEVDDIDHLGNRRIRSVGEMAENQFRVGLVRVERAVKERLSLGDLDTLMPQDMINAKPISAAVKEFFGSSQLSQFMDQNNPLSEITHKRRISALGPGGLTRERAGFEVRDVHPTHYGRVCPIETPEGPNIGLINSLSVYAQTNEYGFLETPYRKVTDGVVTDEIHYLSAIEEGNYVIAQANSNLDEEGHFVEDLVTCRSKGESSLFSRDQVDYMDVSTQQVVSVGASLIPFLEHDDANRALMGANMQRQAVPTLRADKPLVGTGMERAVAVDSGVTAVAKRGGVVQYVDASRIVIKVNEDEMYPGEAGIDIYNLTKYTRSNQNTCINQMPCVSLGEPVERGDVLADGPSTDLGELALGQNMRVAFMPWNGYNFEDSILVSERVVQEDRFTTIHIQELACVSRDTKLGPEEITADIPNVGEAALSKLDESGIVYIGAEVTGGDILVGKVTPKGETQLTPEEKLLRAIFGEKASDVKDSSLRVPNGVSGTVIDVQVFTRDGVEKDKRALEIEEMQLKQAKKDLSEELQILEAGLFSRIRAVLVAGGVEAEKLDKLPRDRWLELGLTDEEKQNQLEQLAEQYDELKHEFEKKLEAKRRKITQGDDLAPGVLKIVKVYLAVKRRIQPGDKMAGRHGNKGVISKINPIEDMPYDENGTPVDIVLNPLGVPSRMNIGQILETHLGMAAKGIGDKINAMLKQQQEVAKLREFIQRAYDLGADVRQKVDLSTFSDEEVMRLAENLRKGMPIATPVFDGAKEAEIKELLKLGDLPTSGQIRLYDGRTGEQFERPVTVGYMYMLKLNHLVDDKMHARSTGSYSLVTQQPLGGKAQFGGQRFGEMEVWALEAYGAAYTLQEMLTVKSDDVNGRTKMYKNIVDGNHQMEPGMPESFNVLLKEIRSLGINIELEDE
Chain of E. coli RNA polymerase σ^70 holoenzyme (P00579 whole entry, further chain): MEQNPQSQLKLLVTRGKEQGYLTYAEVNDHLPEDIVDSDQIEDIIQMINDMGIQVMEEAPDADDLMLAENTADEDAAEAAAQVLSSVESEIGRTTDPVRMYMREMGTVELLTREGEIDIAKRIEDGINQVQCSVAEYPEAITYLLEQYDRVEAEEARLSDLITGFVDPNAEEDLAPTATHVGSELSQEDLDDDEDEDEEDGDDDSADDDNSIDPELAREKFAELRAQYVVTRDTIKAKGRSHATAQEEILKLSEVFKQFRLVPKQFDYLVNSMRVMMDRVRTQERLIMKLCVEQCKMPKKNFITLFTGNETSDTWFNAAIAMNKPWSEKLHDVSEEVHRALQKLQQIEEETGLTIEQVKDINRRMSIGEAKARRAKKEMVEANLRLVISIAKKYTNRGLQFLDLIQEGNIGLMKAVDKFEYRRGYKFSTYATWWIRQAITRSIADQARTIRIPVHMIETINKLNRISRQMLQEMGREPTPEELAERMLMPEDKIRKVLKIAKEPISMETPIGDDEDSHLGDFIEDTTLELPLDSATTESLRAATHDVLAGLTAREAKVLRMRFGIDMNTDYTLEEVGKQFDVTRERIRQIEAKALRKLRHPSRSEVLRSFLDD
Chain of E. coli RNA polymerase σ^70 holoenzyme (P0A7Z4 whole entry, further chain): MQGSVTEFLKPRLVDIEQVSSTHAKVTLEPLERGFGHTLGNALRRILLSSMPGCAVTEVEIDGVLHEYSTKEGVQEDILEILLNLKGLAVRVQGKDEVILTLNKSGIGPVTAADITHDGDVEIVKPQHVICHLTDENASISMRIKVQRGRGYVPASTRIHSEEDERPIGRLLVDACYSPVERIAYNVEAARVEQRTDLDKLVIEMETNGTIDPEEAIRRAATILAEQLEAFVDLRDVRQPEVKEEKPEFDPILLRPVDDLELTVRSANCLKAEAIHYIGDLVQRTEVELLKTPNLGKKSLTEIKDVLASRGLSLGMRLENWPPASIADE

As for `COC(=O)N/C=C/CCC(C)c1cc(O)c(C(=O)C(C)=Cc2ccc(CCC(F)(F)F)s2)c(=O)o1` (mixture of isomers) [APY61, methyl (E)-5-(5-((E/Z)-3-(5-(3,3,3-trifluoropropyl)thiophen-2-yl)-2-methylacryloyl)-4-hydroxy-6-oxo-6H-pyran-2-yl)hex-1-enylcarbamate], the IC50 in experiment [1] was found to be 20 nM. The MIC in [2] was 0.7 µg/mL; in experiment [3], 0.9 µg/mL; in experiment [4] it was 0.9 µg/mL; in experiment [5], 1 µg/mL; in [6], 0.4 µg/mL; in experiment [7] it was 0.4 µg/mL. The MIC was 10 µg/mL in experiment [8] (setting [17]); 0.2 µg/mL in experiment [9]; 10 µg/mL in experiment [10]; 6 µg/mL in [11]; 30 µg/mL in experiment [12]; 30 µg/mL in the experiment on Burkholderia mallei CHN7. For the same molecule, the figures for the MIC (in experiment [13]; with Brucella melitensis 16M) were 30 µg/mL and greater than 50 µg/mL, respectively. Besides, the PD50 in [14] (setting [18]) stood at 20 mg/kg.

As for `COC(=O)N/C=C/CCC(C)c1cc(O)c(C(=O)C(C)=Cc2ccc(OCC(F)(F)F)s2)c(=O)o1` (mixture of isomers) [APY116, methyl ((1E)-5-(4-hydroxy-3-(2-methyl-3-(5-(2,2,2-trifluoroethoxy)thiophen-2-yl)acryloyl)-2-oxo-2H-pyran-6-yl)hex-1-en-1-yl)carbamate], in experiment [1], the IC50 was found to be 30 nM. Moreover, the MIC in experiment [2] stood at 1 µg/mL; in experiment [3], 2 µg/mL; in experiment [4], 2 µg/mL; in experiment [5], 2 µg/mL; in [6] it was 0.8 µg/mL; in experiment [7], 0.7 µg/mL. Besides, the MIC is greater than 40 µg/mL in experiment [8] (setting [17]), 0.2 µg/mL in [9] and 6 µg/mL in [10]. Also, the PD50 in experiment [14] (setting [18]) came out at 20 mg/kg; in experiment [14] (setting [19]), 50 mg/kg.

As for `COC(=O)N/C=C/CCC(C)c1cc(O)c(C(=O)C(C)=Cc2ccc(CCCC(F)(F)F)s2)c(=O)o1` (mixture of isomers) [APY81, methyl ((1E)-5-(4-hydroxy-3-(2-methyl-3-(5-(4,4,4-trifluorobutyl)thiophen-2-yl)acryloyl)-2-oxo-2H-pyran-6-yl)hex-1-en-1-yl)carbamate], the IC50 was found to be 10 nM in experiment [1], 30 nM in [15] and 50 nM in [16]. Also, the MIC in experiment [2] was 0.4 µg/mL; in experiment [3], 0.5 µg/mL; in [4], 0.9 µg/mL; in experiment [5], 0.8 µg/mL; in experiment [8] (setting [17]) it was 20 µg/mL; in experiment [9] it was 0.08 µg/mL. Besides, the MIC in experiment [10] is 10 µg/mL; in experiment [11] it was 2 µg/mL; in [12], 30 µg/mL; in the experiment on Burkholderia mallei CHN7 it was 10 µg/mL; in experiment [13], 10 µg/mL; in the experiment with Brucella melitensis 16M it was 2 µg/mL.

In the case of `COC(=O)N/C=C/CCC(C)c1cc(O)c(C(=O)C(C)=Cc2ccc(CC(C)C)s2)c(=O)o1` (mixture of isomers) [APY60, methyl (E)-5-(4-hydroxy-5-((E/Z)-3-(5-isobutylthiophen-2-yl)-2-methylacryloyl)-6-oxo-6H-pyran-2-yl)hex-1-enylcarbamate], in experiment [1], the IC50 was found to be 10 nM. The MIC in experiment [2] is 0.4 µg/mL; in experiment [3], 0.4 µg/mL; in experiment [4] it was 0.5 µg/mL; in experiment [5], 0.7 µg/mL; in [8] (setting [17]), 9 µg/mL; in experiment [9], 0.2 µg/mL. Besides, the MIC in experiment [10] was 10 µg/mL; in [11] it was 3 µg/mL; in experiment [12], 10 µg/mL; with Burkholderia mallei CHN7, 30 µg/mL; in experiment [13] it was 30 µg/mL; with Brucella melitensis 16M, 6 µg/mL. In experiment [14] (setting [18]), this molecule displayed a PD50 of 20 mg/kg.

With `CCCC/C(C)=C/C=C(\C)C(=O)c1c(O)cc([C@H](C)CC/C=C/NC(=O)OC)oc1=O` [Myx B, myxopyronin B, reference compound], the 50% inhibitory concentration (IC50) in [1] is 10 nM; in [15], 70 nM; in experiment [16], 100 nM. Moreover, the “MIC S. aureus 12600” value in experiment [2] (Staphylococcus aureus) amounted to 0.8 µg/mL (≈ 1.85 µM). Also, the “MIC S. aureus MRSA BAA-1707” value in experiment [3] was 0.9 µg/mL (≈ 2.09 µM). In addition, the “MIC S. aureus MRSA BAA-1717” value in experiment [4] was found to be 0.8 µg/mL (≈ 1.85 µM). In experiment [5], the “MIC S. aureus RRSA 12600-Rif” value worked out at 1 µg/mL (≈ 2.32 µM). Besides, the “MIC S. aureus LRSA NRS120” value in experiment [6] worked out at 0.5 µg/mL (≈ 1.16 µM). Moreover, in experiment [7], the “MIC S. aureus VISA NRS1” value was found to be 0.5 µg/mL (≈ 1.16 µM). For the same molecule, the “inhibition of Acinetobacter baumannii (in words)” value in experiment [8] is on record as “does not inhibit”. For the same molecule, the “MIC A. baumannii 19606” value in experiment [8] (setting [17]) was greater than 40 µg/mL. In addition, the “MIC E. coli D21f2toIC” value in experiment [9] (Escherichia coli D21f2tolC) turned out to be 0.1 µg/mL (≈ 0.232 µM). In addition, in experiment [10], the “MIC M. tuberculosis H37Rv” value came out at 2 µg/mL (≈ 4.63 µM). Moreover, in experiment [11], the “MIC B. anthracis Vollum-1b” value worked out at 6 µg/mL (≈ 13.9 µM). Also, the “MIC F. tularensis SCHU4” value in experiment [12] was 2 µg/mL (≈ 4.63 µM). Further, in the experiment on Yersinia pestis C092, the “MIC Y. pestis C092” value amounted to 50 µg/mL (≈ 116 µM). Besides, in the experiment on Burkholderia mallei CHN7, the “MIC B. mallei CHN7” value was found to be 6 µg/mL (≈ 13.9 µM). The “MIC B. pseudomallei Human/Blood/OH” value in experiment [13] turned out to be 30 µg/mL (≈ 69.5 µM). The “MIC B. melitensis 16M” value in the experiment on Brucella melitensis 16M turned out to be 2 µg/mL (≈ 4.63 µM). Besides, the figures for the PD50 in experiment [14] (setting [18]) and in experiment [14] (setting [19]) were 20 mg/kg and 50 mg/kg, respectively.
